# Test results taken from ChEMBL document CHEMBL1201862, “PubChem BioAssay data set” (2004).
#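 96-well plates; 48 h exposure; 5 concentrations. Endpoints by linear interpolation between flanking doses. Not reached: highest tested concentration assigned. Abbreviation: GI50, concentration required for 50% inhibition of growth.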 Calls of active or inactive are those of the source. No stated cut-off is given here; in the data, active = GI50 up to about 1.1 µM and inactive = higher.
# What was measured:
# Assay in all cases: NCI-60 cell line screen, 48 h
# HOP-62 = tested on: HOP-62
# SN12C = tested on: SN12C
# U-251 = tested on: U-251
# A498 = tested on: A498
# HOP-92 = tested on: HOP-92
# RPMI-8226 = tested on: RPMI-8226
# SNB-19 = tested on: SNB-19
# CAKI-1 = tested on: CAKI-1
# OVCAR-8 = tested on: OVCAR-8
# ACHN = tested on: ACHN
# HCC 2998 = tested on: HCC 2998
# SW-620 = tested on: SW-620
# RXF 393 = tested on: RXF 393
# OVCAR-4 = tested on: OVCAR-4
# MCF7 = tested on: MCF7
# EKVX = tested on: EKVX
# SF-295 = tested on: SF-295
# A549 = tested on: A549
# OVCAR-3 = tested on: OVCAR-3
SMILES,GI50 (HOP-62),GI50 (SN12C),GI50 (U-251),GI50 (A498),GI50 (HOP-92),GI50 (RPMI-8226),GI50 (SNB-19),GI50 (CAKI-1),GI50 (OVCAR-8),GI50 (ACHN),GI50 (HCC 2998),GI50 (SW-620),GI50 (RXF 393),GI50 (OVCAR-4),GI50 (MCF7),GI50 (EKVX),GI50 (SF-295),GI50 (A549),GI50 (OVCAR-3)
O=C(/C=C/c1ccco1)c1cccc(C(=O)/C=C/c2ccco2)n1,17.1 µM (inactive),12.6 µM (inactive),5.22 µM (inactive),> 72.1 µM (inactive),32.9 µM (inactive),1.87 µM (inactive),8.41 µM (inactive),25 µM (inactive),2.69 µM (inactive),21.9 µM (inactive),> 75.9 µM (inactive),3.2 µM (inactive),25.5 µM (inactive),> 73.5 µM (inactive),0.662 µM (active),57.3 µM (inactive),40.1 µM (inactive),27.1 µM (inactive),19.4 µM (inactive)
O=C1Nc2ccccc2/C1=C/c1ccccc1,18 µM (inactive),14.1 µM (inactive),15 µM (inactive),13.5 µM (inactive),11 µM (inactive),18.2 µM (inactive),14.5 µM (inactive),29.2 µM (inactive),18.8 µM (inactive),30.4 µM (inactive),15.8 µM (inactive),25.2 µM (inactive),9.27 µM (inactive),23.6 µM (inactive),3.36 µM (inactive),13.8 µM (inactive),17.5 µM (inactive),25.2 µM (inactive),16.7 µM (inactive)
N/C(S)=N/N=C/c1ccc(N)cn1,5.73 µM (inactive),3.92 µM (inactive),4.06 µM (inactive),> 8.15 µM (inactive),3.44 µM (inactive),3.52 µM (inactive),9.89 µM (inactive),3.78 µM (inactive),3.18 µM (inactive),1.29 µM (inactive),3.65 µM (inactive),> 10 µM (inactive),3.42 µM (inactive),> 10 µM (inactive),3.01 µM (inactive),> 10 µM (inactive),3.52 µM (inactive),3.54 µM (inactive),5.01 µM (inactive)
COc1ccnc2c1C(=O)c1nc3ccccc3c3ccnc-2c13,0.125 µM (active),0.112 µM (active),0.204 µM (active),0.0859 µM (active),0.342 µM (active),0.201 µM (active),0.182 µM (active),0.181 µM (active),0.0512 µM (active),0.0634 µM (active),0.0687 µM (active),0.0809 µM (active),0.231 µM (active),0.307 µM (active),0.0807 µM (active),0.284 µM (active),0.169 µM (active),0.142 µM (active),0.0353 µM (active)
CCCCCC/C=C\CCCCCCCCCc1cccc(O)c1C(=O)O [GINKGOLIC ACID 17:1],> 100 µM (inactive),> 100 µM (inactive),> 100 µM (inactive),> 100 µM (inactive),> 100 µM (inactive),84.3 µM (inactive),61.1 µM (inactive),> 100 µM (inactive),> 100 µM (inactive),> 100 µM (inactive),> 100 µM (inactive),> 100 µM (inactive),> 100 µM (inactive),> 100 µM (inactive),> 100 µM (inactive),> 100 µM (inactive),59.3 µM (inactive),> 100 µM (inactive),> 100 µM (inactive)
O=C1CCCC1C(=O)Nc1ccc2ccccc2c1 (stereo not given),> 100 µM (inactive),> 100 µM (inactive),> 100 µM (inactive),> 100 µM (inactive),> 100 µM (inactive),59.2 µM (inactive),> 100 µM (inactive),> 100 µM (inactive),> 100 µM (inactive),> 100 µM (inactive),> 100 µM (inactive),> 100 µM (inactive),44.5 µM (inactive),> 100 µM (inactive),> 100 µM (inactive),32.1 µM (inactive),> 100 µM (inactive),> 100 µM (inactive),> 100 µM (inactive)
Clc1cccc(C2ON=C(c3ccccc3)N2C23CC4CC(CC(C4)C2)C3)c1Cl (stereo not given),> 10 µM (inactive),> 10 µM (inactive),> 10 µM (inactive),> 10 µM (inactive),2.72 µM (inactive),> 10 µM (inactive),> 10 µM (inactive),> 10 µM (inactive),> 10 µM (inactive),> 10 µM (inactive),> 10 µM (inactive),> 10 µM (inactive),> 10 µM (inactive),> 10 µM (inactive),> 10 µM (inactive),> 10 µM (inactive),> 10 µM (inactive),> 10 µM (inactive),> 10 µM (inactive)
Cc1ccc2[nH]c3c(c2c1)C1CCC(C(C)(C)C)CC1C1C(=O)N(c2ccc4c(c2)OCO4)C(=O)C31 (stereo not given),1.91 µM (inactive),2.24 µM (inactive),2.1 µM (inactive),1.83 µM (inactive),2.24 µM (inactive),4.3 µM (inactive),2.64 µM (inactive),2.3 µM (inactive),1.97 µM (inactive),1.87 µM (inactive),2.38 µM (inactive),2.63 µM (inactive),2.26 µM (inactive),1.85 µM (inactive),3.24 µM (inactive),3.57 µM (inactive),3.11 µM (inactive),2.31 µM (inactive),1.52 µM (inactive)
CNC1=CC(=O)C2=C(C1=O)[C@H]1CC[C@]3(C)C(=O)CC[C@H]3[C@@H]1CC2,15.2 µM (inactive),19.9 µM (inactive),21.8 µM (inactive),22.2 µM (inactive),12 µM (inactive),17.3 µM (inactive),17.7 µM (inactive),13.6 µM (inactive),9.71 µM (inactive),21.6 µM (inactive),16 µM (inactive),22.9 µM (inactive),15.2 µM (inactive),9.38 µM (inactive),20.2 µM (inactive),15.3 µM (inactive),15.3 µM (inactive),19.8 µM (inactive),1.16 µM (inactive)
O=C1C(Cl)=C(Nc2ccc(OC(F)(F)F)cc2)C(=O)c2c(O)ccc(O)c21,1.17 µM (inactive),0.468 µM (active),0.726 µM (active),3.87 µM (inactive),0.826 µM (active),0.0598 µM (active),1.22 µM (inactive),1.6 µM (inactive),0.71 µM (active),1.45 µM (inactive),0.544 µM (active),0.891 µM (active),0.519 µM (active),1.57 µM (inactive),0.46 µM (active),0.877 µM (active),1.93 µM (inactive),1.22 µM (inactive),0.505 µM (active)
O=[N+]([O-])C(=C(Cl)Cl)C(Cl)=C(Cl)Cl,8.22 µM (inactive),0.497 µM (active),2.81 µM (inactive),3.63 µM (inactive),0.279 µM (active),< 0.0176 µM (active),4.6 µM (inactive),0.15 µM (active),0.619 µM (active),0.635 µM (active),1.3 µM (inactive),0.0169 µM (active),0.0391 µM (active),0.0847 µM (active),0.114 µM (active),3.65 µM (inactive),3.06 µM (inactive),6.44 µM (inactive),0.706 µM (active)
Cc1c2ccccc2c(/C=N/NC(=O)CSCC(=O)N/N=C/c2c3ccccc3c(C)c3ccccc23)c2ccccc12,12.9 µM (inactive),61.2 µM (inactive),29.6 µM (inactive),21.7 µM (inactive),13.2 µM (inactive),17.2 µM (inactive),47 µM (inactive),> 67.1 µM (inactive),16.2 µM (inactive),> 47.8 µM (inactive),18.3 µM (inactive),> 57.4 µM (inactive),16.3 µM (inactive),> 42.1 µM (inactive),23 µM (inactive),> 59 µM (inactive),16 µM (inactive),> 64.1 µM (inactive),47.5 µM (inactive)
CN(C)c1ccc(/C=C(\NC(=O)c2ccccc2)C(=O)NC(CC(=O)O)C(=O)O)cc1 (stereo not given),22.9 µM (inactive),> 100 µM (inactive),> 100 µM (inactive),> 100 µM (inactive),> 100 µM (inactive),> 100 µM (inactive),> 100 µM (inactive),> 100 µM (inactive),68.9 µM (inactive),> 100 µM (inactive),> 100 µM (inactive),> 100 µM (inactive),> 100 µM (inactive),53.2 µM (inactive),> 100 µM (inactive),> 100 µM (inactive),> 100 µM (inactive),> 100 µM (inactive),52.7 µM (inactive)
CC(C)(C)OC(=O)N/N=C(/N)Cc1ccccc1,> 100 µM (inactive),> 100 µM (inactive),> 100 µM (inactive),> 100 µM (inactive),> 100 µM (inactive),> 100 µM (inactive),> 100 µM (inactive),> 100 µM (inactive),> 100 µM (inactive),> 100 µM (inactive),> 100 µM (inactive),> 100 µM (inactive),> 100 µM (inactive),> 100 µM (inactive),> 100 µM (inactive),> 100 µM (inactive),> 100 µM (inactive),> 100 µM (inactive),> 100 µM (inactive)
C=C(CC)C(=O)c1ccc(OCC(=O)O)c(Cl)c1Cl [ETHACRYNIC ACID],20.5 µM (inactive),20 µM (inactive),16 µM (inactive),35.8 µM (inactive),12.2 µM (inactive),14.5 µM (inactive),15.6 µM (inactive),14.9 µM (inactive),17.5 µM (inactive),26.8 µM (inactive),17.8 µM (inactive),19.3 µM (inactive),18.2 µM (inactive),20 µM (inactive),6.05 µM (inactive),17.5 µM (inactive),35.6 µM (inactive),> 91.8 µM (inactive),16.1 µM (inactive)
